Each molecule was assayed on ISR pathway (ATF4 translation) (assay: ATF4 Nano Luciferase reporter integrated stress response (ISR) assay in H4 ATF4-NLuc cells). Settings: Homo sapiens, H4 ATF4-NLuc (clone 17) cells; compound 30 minutes, then 50 um sodium arsenite for 6 hours; luminescence readout.

Q: Which IC50 does the source give for `O=C(COc1ccc(Cl)c(F)c1)NC12CC(c3nnc(C4CN(CC(F)(F)F)C4)o3)(C1)C2` [Example 15, 2-(4-chloro-3-fluoro-phenoxy)-N-[1-[5-[1-(2,2,2-trifluoroethyl)azetidin-3-yl]-1,3,4-oxadiazol-2-yl]-3-bicyclo[1.1.1]pentanyl]acetamide] here?
A: 17.1 nM

Q: `O=C(COc1ccc(Cl)c(F)c1)NC12CC(c3nnc([C@H]4C[C@@H](OC(F)F)C4)o3)(C1)C2` [Example 51] was tested. Which IC50 did it give?
A: 13.7 nM

Same assay, conditions: Homo sapiens, read-out: Activity (IC50), H4 ATF4-NLuc (clone 17) cells; compound 30 minutes, then 50 um sodium arsenite for 6 hours; luminescence readout

Q: How did the IC50 turn out when `O=C(COc1ccc(Cl)c(F)c1)NC12CC(c3nnc(CC4CC4)o3)(C1)C2` [Example 11, 2-(4-chloro-3-fluoro-phenoxy)-N-[1-[5-(cyclopropylmethyl)-1,3,4-oxadiazol-2-yl]-3-bicyclo[1.1.1]pentanyl]acetamide] was run?
A: < 1000 nM

Q: With `O=C(CO[C@H]1C[C@@H](OC(F)(F)F)C1)NC12CC(c3nnc(-c4ccc(Cl)c(F)c4)o3)(C1)C2` [Example 12, N-[3-[5-(4-chloro-3-fluoro-phenyl)-1,3,4-oxadiazol-2-yl]-1-bicyclo[1.1.1]pentanyl]-2-[cis-3-(trifluoromethoxy)cyclobutoxy]acetamide] as the molecule, how does the IC50 read?
A: < 1000 nM

Q: For `CC(C)(C)OC(=O)N1CC(c2nnc(C34CC(NC(=O)COc5ccc(Cl)c(F)c5)(C3)C4)o2)C1` [Example 13, tert-Butyl 3-[5-[3-[[2-(4-chloro-3-fluoro-phenoxy)acetyl]amino]-1-bicyclo[1.1.1]pentanyl]-1,3,4-oxadiazol-2-yl]azetidine-1-carboxylate], which IC50 is on record?
A: < 1000 nM

Q: For `CC(C)(C)OC(=O)N1CCC(c2nnc(C34CC(NC(=O)COc5ccc(Cl)c(F)c5)(C3)C4)o2)C1` (centres unmarked) [Example 14, tert-butyl 3-[5-[3-[[2-(4-chloro-3-fluoro-phenoxy)acetyl]amino]-1-bicyclo[1.1.1]pentanyl]-1,3,4-oxadiazol-2-yl]pyrrolidine-1-carboxylate], which IC50 is on record?
A: < 1000 nM

Q: With `O=C(COc1ccc(Cl)c(F)c1)NC12CC(c3nnc(C4CN(CC(F)(F)F)C4)o3)(C1)C2` [Example 15, 2-(4-chloro-3-fluoro-phenoxy)-N-[1-[5-[1-(2,2,2-trifluoroethyl)azetidin-3-yl]-1,3,4-oxadiazol-2-yl]-3-bicyclo[1.1.1]pentanyl]acetamide] as the molecule, how does the IC50 read?
A: < 1000 nM

Q: Which IC50 does the source give for `O=C(COc1ccc(Cl)c(F)c1)NC12CC(c3nnc(C4CCN(CC(F)(F)F)C4)o3)(C1)C2` (centres unmarked) [Example 16, 2-(4-chloro-3-fluoro-phenoxy)-N-[1-[5-[1-(2,2,2-trifluoroethyl)pyrrolidin-3-yl]-1,3,4-oxadiazol-2-yl]-3-bicyclo[1.1.1]pentanyl]acetamide] here?
A: < 1000 nM

Q: With `O=C(COc1ccc(Cl)c(F)c1)NC12CC(c3nnc(C4CC4)o3)(C1)C2` [Example 17, 2-(4-chloro-3-fluoro-phenoxy)-N-[3-(5-cyclopropyl-1,3,4-oxadiazol-2-yl)-1-bicyclo[1.1.1]pentanyl]acetamide] as the molecule, how does the IC50 read?
A: < 1000 nM

Q: With `O=C(COc1ccc(Cl)c(F)c1)NC12CC(c3nnc(C4CC4(F)F)o3)(C1)C2` (centres unmarked) [Example 18, 2-(4-chloro-3-fluoro-phenoxy)-N-[3-[5-(2,2-difluorocyclopropyl)-1,3,4-oxadiazol-2-yl]-1-bicyclo[1.1.1]pentanyl]acetamide] as the molecule, how does the IC50 read?
A: < 1000 nM

Q: With `O=C(COc1ccc(Cl)c(F)c1)NC12CC(C3=NOC(C4CCCC4)C3)(C1)C2` (centres unmarked) [Example 21, 2-(4-chloro-3-fluorophenoxy)-N-(3-(5-cyclopentyl-4,5-dihydroisoxazol-3-yl)bicyclo[1.1.1]pentan-1-yl)acetamide] as the molecule, how does the IC50 read?
A: < 1000 nM

Q: `O=C(COc1ccc(Cl)c(F)c1)NC12CC(c3cc(C4CCCC4)on3)(C1)C2` [Example 22, 2-(4-chloro-3-fluorophenoxy)-N-(3-(5-cyclopentylisoxazol-3-yl)bicyclo[1.1.1]pentan-1-yl)acetamide] was tested. Which IC50 did it give?
A: < 1000 nM

Q: `O=C(COc1ccc(Cl)c(F)c1)NC12CC(C3=NOC(C4CCC4)C3)(C1)C2` (centres unmarked) [Example 23, 2-(4-chloro-3-fluorophenoxy)-N-(3-(5-cyclobutyl-4,5-dihydroisoxazol-3-yl)bicyclo[1.1.1]pentan-1-yl)acetamide] was tested. Which IC50 did it give?
A: < 1000 nM

Q: With `O=C(COc1ccc(Cl)c(F)c1)NC12CC(c3cc(C4CCC4)on3)(C1)C2` [Example 24, 2-(4-chloro-3-fluorophenoxy)-N-(3-(5-cyclobutylisoxazol-3-yl)bicyclo[1.1.1]pentan-1-yl)acetamide] as the molecule, how does the IC50 read?
A: < 1000 nM

Q: For `O=C(COc1ccc(Cl)c(F)c1)NC12CC(c3nnc(C4CCC4)o3)(C1)C2` [Example 25, 2-(4-chloro-3-fluoro-phenoxy)-N-[1-(5-cyclobutyl-1,3,4-oxadiazol-2-yl)-3-bicyclo[1.1.1]pentanyl]acetamide], which IC50 is on record?
A: < 1000 nM

Q: How did the IC50 turn out when `O=C(COc1ccc(Cl)c(F)c1)NC12CC(c3cc(C4CCC4)no3)(C1)C2` [Example 26, 2-(4-Chloro-3-fluorophenoxy)-N-(3-(3-cyclobutylisoxazol-5-yl)bicyclo[1.1.1]pentan-1-yl)acetamide] was run?
A: < 1000 nM

Q: How did the IC50 turn out when `O=C(COc1ccc(Cl)c(F)c1)NC12CC(c3nc(C4CCC4)co3)(C1)C2` [Example 27, 2-(4-chloro-3-fluoro-phenoxy)-N-[1-(4-cyclobutyloxazol-2-yl)-3-bicyclo[1.1.1]pentanyl]acetamide] was run?
A: < 1000 nM

Q: How did the IC50 turn out when `O=C(COC1CCC1)NC12CC(c3cn(-c4ccc(Cl)cc4)nn3)(C1)C2` [Example 28, N-[1-[1-(4-Chlorophenyl)triazol-4-yl]-3-bicyclo[1.1.1]pentanyl]-2-(cyclobutoxy)acetamide] was run?
A: < 1000 nM

Q: Which IC50 does the source give for `N#CC1CC(c2nnc(C34CC(NC(=O)COc5ccc(Cl)c(F)c5)(C3)C4)o2)C1` (centres unmarked) [Example 29, 2-(4-chloro-3-fluoro-phenoxy)-N-[1-[5-(3-cyanocyclobutyl)-1,3,4-oxadiazol-2-yl]-3-bicyclo[1.1.1]pentanyl]acetamide] here?
A: < 1000 nM

Q: `C#CC12CC(NC(=O)COc3ccc(Cl)c(F)c3)(C1)C2` [Example 31, 2-(4-chloro-3-fluorophenoxy)-N-(3-ethynylbicyclo[1.1.1]pentan-1-yl)acetamide] was tested. Which IC50 did it give?
A: 1000 to 10000 nM

Q: With `O=C(COc1ccc(Cl)c(F)c1)NC12CC(c3c[nH]nn3)(C1)C2` [Example 32, N-(3-(1H-1,2,3-triazol-4-yl)bicyclo[1.1.1]pentan-1-yl)-2-(4-chloro-3-fluorophenoxy)acetamide] as the molecule, how does the IC50 read?
A: < 1000 nM

Q: For `N#C[C@H]1C[C@H](n2ncc(C34CC(NC(=O)COc5ccc(Cl)c(F)c5)(C3)C4)n2)C1` [Example 33, 2-(4-chloro-3-fluorophenoxy)-N-(3-(2-((trans)-3-cyanocyclobutyl)-2H-1,2,3-triazol-4-yl)bicyclo[1.1.1]pentan-1-yl)acetamide], which IC50 is on record?
A: < 1000 nM

Q: How did the IC50 turn out when `N#C[C@H]1C[C@H](n2cc(C34CC(NC(=O)COc5ccc(Cl)c(F)c5)(C3)C4)nn2)C1` [Example 34, 2-(4-chloro-3-fluorophenoxy)-N-(3-(1-((trans)-3-cyanocyclobutyl)-1H-1,2,3-triazol-4-yl)bicyclo[1.1.1]pentan-1-yl)acetamide] was run?
A: < 1000 nM

Q: With `O=C(COC1CCC1)NC12CC(c3nnc(COc4ccc(Cl)c(F)c4)[nH]3)(C1)C2` [Example 37, N-(3-(5-((4-chloro-3-fluorophenoxy)methyl)-4H-1,2,4-triazol-3-yl)bicyclo[1.1.1]pentan-1-yl)-2-cyclobutoxyacetamide] as the molecule, how does the IC50 read?
A: 1000 to 10000 nM

Q: `O=C(COc1ccc(Cl)c(F)c1)NC12CC(c3nnc(CC4CCC4)o3)(C1)C2` [Example 38, 2-(4-chloro-3-fluoro-phenoxy)-N-[1-[5-(cyclobutylmethyl)-1,3,4-oxadiazol-2-yl]-3-bicyclo[1.1.1]pentanyl]acetamide] was tested. Which IC50 did it give?
A: < 1000 nM

Q: How did the IC50 turn out when `O=C(COc1ccc(Cl)c(F)c1)NC12CC(n3cnc(C4CCC4)c3)(C1)C2` [Example 39, 2-(4-chloro-3-fluoro-phenoxy)-N-[3-(4-cyclobutylimidazol-1-yl)-1-bicyclo[1.1.1]pentanyl]acetamide] was run?
A: < 1000 nM

Q: `Cc1nnc(C23CC(NC(=O)COc4ccc(Cl)c(F)c4)(C2)C3)o1` [Example 40, 2-(4-chloro-3-fluoro-phenoxy)-N-[1-(5-methyl-1,3,4-oxadiazol-2-yl)-3-bicyclo[1.1.1]pentanyl]acetamide] was tested. Which IC50 did it give?
A: < 1000 nM

Q: `O=C(CO[C@H]1C[C@@H](OC(F)(F)F)C1)NC12CC(c3nnc(COc4ccc(Cl)c(F)c4)o3)(C1)C2` [Example 41, N-[1-[5-[(4-chloro-3-fluoro-phenoxy)methyl]-1,3,4-oxadiazol-2-yl]-3-bicyclo[1.1.1]pentanyl]-2-cis-[3-(trifluoromethoxy)cyclobutoxy]acetamide] was tested. Which IC50 did it give?
A: < 1000 nM

Q: With `O=C(COC1CCC1)NC12CC(c3nnc(-c4ccc(Cl)c(F)c4)o3)(C1)C2` [Example 42, N-[1-[5-(4-chloro-3-fluoro-phenyl)-1,3,4-oxadiazol-2-yl]-3-bicyclo[1.1.1]pentanyl]-2-(cyclobutoxy)acetamide] as the molecule, how does the IC50 read?
A: 1000 to 10000 nM

Q: How did the IC50 turn out when `O=C(COc1ccc(Cl)c(F)c1)NC12CC(c3nnc([C@H]4C[C@@H](C(F)(F)F)C4)o3)(C1)C2` [Example 43, 2-(4-chloro-3-fluorophenoxy)-N-(3-(5-((cis)-3-(trifluoromethyl)cyclobutyl)-1,3,4-oxadiazol-2-yl)bicyclo[1.1.1]pentan-1-yl)acetamide] was run?
A: < 1000 nM

Q: With `O=C(COc1ccc(Cl)c(F)c1)NC12CC(c3nnc([C@H]4C[C@H](C(F)(F)F)C4)o3)(C1)C2` [Example 44, 2-(4-chloro-3-fluoro-phenoxy)-N-[1-[5-trans-[3-(trifluoromethyl)cyclobutyl]-1,3,4-oxadiazol-2-yl]-3-bicyclo[1.1.1]pentanyl]acetamide] as the molecule, how does the IC50 read?
A: < 1000 nM

Q: How did the IC50 turn out when `O=C(COc1ccc(Cl)c(F)c1)NC12CC(c3nnc(COC(F)(F)F)o3)(C1)C2` [Example 45, 2-(4-chloro-3-fluoro-phenoxy)-N-[1-[5-(trifluoromethoxymethyl)-1,3,4-oxadiazol-2-yl]-3-bicyclo[1.1.1]pentanyl]acetamide] was run?
A: < 1000 nM

Q: Which IC50 does the source give for `O=C(COC1CCC1)NC12CC(c3nnc(COc4ccc(Cl)c(F)c4)o3)(C1)C2` [Example 46] here?
A: < 1000 nM

Q: With `O=C(COc1ccc(Cl)c(F)c1)NC12CC(c3ncc(C4CCC4)o3)(C1)C2` [Example 47] as the molecule, how does the IC50 read?
A: < 1000 nM

Q: How did the IC50 turn out when `O=C(COc1ccc(Cl)c(F)c1)NC12CC(n3cnc(CC4CCC4)c3)(C1)C2` [Example 48] was run?
A: < 1000 nM

Q: How did the IC50 turn out when `O=C(CO[C@H]1C[C@@H](OC(F)(F)F)C1)NC12CC(c3nnc([C@H]4C[C@@H](OC(F)(F)F)C4)o3)(C1)C2` [Example 50] was run?
A: < 1000 nM

Q: Which IC50 does the source give for `O=C(COc1ccc(Cl)c(F)c1)NC12CC(c3nnc([C@H]4C[C@@H](OC(F)F)C4)o3)(C1)C2` [Example 51] here?
A: < 1000 nM

Q: How did the IC50 turn out when `O=C(CO[C@H]1C[C@@H](OC(F)(F)F)C1)NC12CC(n3cnc(C4CC(OC(F)(F)F)C4)c3)(C1)C2` (some centres unmarked) [Example 52] was run?
A: < 1000 nM

Source: patent US11851440B2, “Modulators of eukaryotic initiation factor 2B, compositions and methods” (Denali Therapeutics Inc., priority 2017, dated 2023)
